Key:
[1] = tested on: NMDA-induced 3′,5′-cyclic guanosine monophosphate (cGMP) production; parameters: method as in PMID 19732061; conditions: hippocampal cultures; cited from earlier work
[2] = tested on: two mice pain models; parameters: method as in PMID 19732061; conditions: cited from earlier work
[3] = target: T1, nNOS-PDZ/PSD-95-PDZ2 interaction (Homo sapiens, UniProt P29475); assay: 'indirect' FP assay, Cnskr2 probe / PSD-95-PDZ2 / nNOS-PDZ; assay type: binding; conditions: for activity in indirect FP assay (nNOS-PDZ/PSD-95-PDZ2): up to 500–600 μM, Cy5-Cnskr2 5 nM / PSD-95-PDZ2 3 μM / nNOS-PDZ 5 μM
T1 construct: nNOS-PDZ (12–130, human); PDZ2 (155-249); made in house; host or cells: E. coli
Description: First we tested a series of 23 fluorescent-labelled C-terminal peptide ligands (Supplementary Table S1) derived from PDZ-interacting proteins in order to find a probe with good activity towards the PSD-95 PDZ domains and no or little activity against nNOS-PDZ (Supplementary Fig. S1). The Cnskr2 probe fulfilled these selectivity criteria and was used to generate saturation curves with PDZ2 and PDZ1-2 of PSD-95 (Fig. 4a). […] Next, fixed concentrations of TAMRA-Cnskr2, PSD-95-PDZ2/1-2, and nNOS-PDZ were applied, corresponding to the conditions at IC50 of the nNOS-PDZ inhibition curve (Fig. 4b) where sensitivity of the assay is greatest. […] Here, we used the Sapk3-peptide as it has the desired high affinity to α1-Syntrophin-PDZ and low affinity to nNOS-PDZ (Supplementary Fig. S1).
The minor increases in mP at high concentrations, 260-2900 μM, were due to fluorescence artefacts.
Similar, this assay was established with Syntrophin-PDZ and Sapk3 as probe (Fig. 4d).
In all cases, the DMSO effect on the assay was tested and found negligible.

[4] = target: T2, nNOS-PDZ/PSD-95-PDZ2 interaction (Mus musculus, UniProt Q9Z0J4); assay: ITC of nNOS-PDZ/PSD-95-PDZ2 interaction in the presence of compound; assay type: binding; conditions: 1 mM IC87201 present; significant interference, reduced reliability
T2 construct: nNOS-PDZ (residues 12–134, Uniprot Q9JJ30); PSD-95-PDZ2 (157–249, human); made in house
Procedure: Unlike the FP experiments above, which rely on inhibition of interaction partners, the ITC method is a direct measure of binding, regardless of where it takes place on the protein.
Figure 5 ITC curves. Plots showing titrations into PDZ domains fitted to a one-site model.
All ITC experiments were carried out at 25 °C on an iTC200 Microcalorimeter (GE Healthcare) with a 200 μL cell capacity and 40 μL syringe volume. The buffer used for all solutions was 20 mM phosphate buffer at pH 6.3; each experiment consisted of an initial injection of 0.5 μL, followed by fifteen 2.39 μL injections before a final injection of 1.89 μL. […] In both cases no heat exchange was detected, confirming that there was appropriate match of buffer conditions with no indication of dilution effects. […] For the nNOS-PDZ/PSD-95-PDZ2 interaction, 100 μM PDZ2 in the cell was titrated with 750 μM nNOS-PDZ. […] All data was analysed using the Origin®7 software programme.

[5] = tested on: nNOS/PSD-95 interaction; parameters: method as in PMID 19732061; conditions: cited from earlier work
[6] = tested on: PSD-95/cypin-interaction; parameters: method as in PMID 19732061; conditions: cited from earlier work
[7] = tested on: 34 targets in a panel of receptors, ion channels, and transporters; parameters: method as in PMID 19732061; conditions: cited from earlier work
[8] = tested on: nNOS/CAPON; parameters: method as in PMID 21102461; conditions: cited from earlier work
[9] = tested on: neurons; parameters: method as in PMID 21102461; conditions: cited from earlier work
[10] = tested on: NMDA receptor; parameters: method as in PMID 21102461; conditions: cited from earlier work
[11] = tested on: NMDA receptor-mediated NO synthesis; parameters: method as in PMID 21102461; conditions: cited from earlier work
[12] = tested on: nNOS; parameters: method as in PMID 21102461; conditions: cited from earlier work
[13] = tested on: nNOS/PSD-95 interaction; parameters: method as in PMID 21102461; conditions: extracts from glutamate- or ischemia-induced cultured neurons and cortical brain; cited from earlier work
[14] = tested on: animal ischemic stroke models; parameters: method as in PMID 21102461; conditions: not when the nNOS gene was knocked out; cited from earlier work
[15] = tested on: nNOS; parameters: method as in PMID 21102461; conditions: cited from earlier work; remark: listed apart in the source
[16] = tested on: PSD-95/SynGAP; parameters: method as in PMID 21102461; conditions: cited from earlier work
[17] = tested on: PSD-95/GluN2B; parameters: method as in PMID 21102461; conditions: cited from earlier work

T1 sequence (P29475 12-130): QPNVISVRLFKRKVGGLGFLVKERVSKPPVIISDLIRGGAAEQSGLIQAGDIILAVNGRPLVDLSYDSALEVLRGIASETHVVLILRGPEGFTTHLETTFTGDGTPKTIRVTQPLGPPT
T2 sequence (Q9Z0J4 12-134): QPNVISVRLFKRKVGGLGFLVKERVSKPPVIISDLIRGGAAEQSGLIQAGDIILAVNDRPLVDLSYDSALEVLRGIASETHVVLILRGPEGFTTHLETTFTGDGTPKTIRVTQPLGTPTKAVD

Structure (SMILES)	NMDA-induced cGMP production [1]	analgesic properties [2]	activity in indirect FP assay (nNOS-PDZ/PSD-95-PDZ2) [3]	effect on affinity between nNOS-PDZ and PSD-95-PDZ2 (ITC) [4]	disruption of nNOS/PSD-95 interaction in vitro [5]	effect on PSD-95/cypin-interaction [6]	effect on 34 targets in a panel of receptors, ion channels, and transporters [7]	inhibition of nNOS/CAPON [8]	neuroprotective properties in neurons [9]	rise in FP signal (inhibition of nNOS-PDZ/PSD-95-PDZ2) ([3]; ZL006 0-2900 μM, TAMRA-Cnskr2 5 nM / PSD-95-PDZ2 […] / nNOS-PDZ 1 μM)	effect on NMDA receptor function (ion flux) [10]	NMDA receptor-mediated NO synthesis [11]	effect on nNOS catalytic activity [12]	inhibition of nNOS/PSD-95 interaction (co-immunoprecipitation) [13]	neuroprotective properties in animal ischemic stroke models [14]	effect on nNOS expression [15]	inhibition of PSD-95/SynGAP [16]	inhibition of PSD-95/GluN2B [17]
Oc1c(Cl)cc(Cl)cc1CNc1ccc2[nH]nnc2c1 [IC87201, 2-((1H-Benzo[d][1–3]triazol-5-ylamino)methyl)-4-6-dichlorophenol]	blocked	analgesic properties	no activity	appeared to be affected	disrupt	did not affect	did not affect	–	–	–	–	–	–	–	–	–	–	–
O=C(O)c1ccc(NCc2cc(Cl)cc(Cl)c2O)cc1O [ZL006, 4-((3,5-Dichloro-2-hydroxybenzyl)amino)-2-hydroxybenzoic acid]	–	–	no activity	–	–	–	–	not inhibited	robust neuroprotective properties	no rise in FP signal	did not affect	inhibited	did not affect	inhibit	robust neuroprotective properties	did not affect	not inhibited	not inhibited

— publication PMC4503980 (Scientific Reports, 2015)
